# Assay results reported in US8945879B2, “Methods for recombinant expression of a polypeptide comprising a carbohydrate binding module using a host cell having reduced expression of a protease” (priority 2007, dated 2015).
# Numbered stars: 1 amine (or outer) side, 2 acyl side, 3 side chain; on linkers, the order of the positions; unused ones are H or OH. Square brackets hold non-standard residues; d marks the D form. Peptide text beside a SMILES is read from it. * marks the point of attachment. Sta = CC(C)C[C@H](N)[C@@H](O)CC(=O)O; AMC = Cc1cc(=O)oc2cc(N*)ccc12; Suc = O=C(CCC(=O)[*:2])[*:1]; Isovaleryl = CC(C)CC(=O)*; code Z = not defined here; Boc = CC(C)(C)OC(=O)*
# B1: 19 kDa protease: Aspergillus niger 19 kDa protease (SEQ ID NO: 5) expressed intracellularly in A. oryzae, pooled gel permeation fractions (protein)
# chain: MSPIPSYSRPGRGQHFQDAYGFAEACIAGDRMEIAGQTGMSPTSTEVPPTLEEEVAQAFNNINEVILYTLEKAKPDLRASVKSGWDRVVKIRTYHVQLPQTREKIIGLMVENVKKWCPDHQPTWTMLGIEALPFEGQNLEIEVDVFLG
# modifications: Aspergillus niger
# System: 19 kDa protease
# Assay: Substrate specificity of the 19 kDa protease (fluorogenic MCA substrates)
# Assay type: biochemical, Aspergillus niger
# Conditions: 0.04 mM substrate solution, phosphate buffer pH 6.7, 37° C., 30 min, fluorescence 360/460 nm; Suc-LLVY-MCA = 100%
# Procedure: (§1) Five synthetic substrates were purchased from Peptide Institute Co., Osaka. The substrates are Glt-AAF-MCA, Suc-LLVY-MCA, Boc-FSR-MCA, Suc(OMe)-AAPV-MCA, and Z-LLE-MCA. 25 μl of 0.04 mM substrates were preincubated at 37° C. for 5 min. 20 μl of protease sample were mixed with 25 μl of 400 mM phosphate buffer, pH 6.7, 5 μl of 2 M NaCl, and 25 μl of Milli Q water, and then preincubated at 37° C. for 5 min. The reactions were started by mixing the substrate solutions and the enzyme solutions. Increases of fluorescent strength were measured by FL600 Microplate Fluorescence Reader with 360 nm excitation and 460 nm emission filters at 37° C. for 30 min.
row,Molecule,Substrate specificity (relative activity on substrate) [%]
1,"Boc-FSR-MCA (Boc-Phe-Ser-Arg-{AMC}) [synthetic substrate purchased from Peptide Institute Co., Osaka]",0.3
2,"Glt-AAF-MCA (Glt-Ala-Ala-Phe-{AMC}) [synthetic substrate purchased from Peptide Institute Co., Osaka]",1.6
3,"Suc(OMe)-AAPV-MCA ({Suc(OMe)}-AAPV-{AMC}) [synthetic substrate purchased from Peptide Institute Co., Osaka]",0.2
4,"Suc-LLVY-MCA (Suc-LLVY-{AMC}) [synthetic substrate purchased from Peptide Institute Co., Osaka]",100.0
5,"Z-LLE-MCA ({code Z}-Leu-Leu-Glu-{AMC}; reading uncertain; also: printed as Z-LLE-MCA) [synthetic substrate purchased from Peptide Institute Co., Osaka]",0.1

# Same assay, conditions: five synthetic substrates compared, pH 6.7, 37° C.
row,Molecule,substrate ranking (in words)
1,"Suc-LLVY-MCA (Suc-LLVY-{AMC}) [synthetic substrate purchased from Peptide Institute Co., Osaka]",best substrate

# System: 19 kDa protease
# Assay: Effects of inhibitors on the 19 kDa protease (Suc-LLVY-MCA hydrolysis)
# Assay type: biochemical, Aspergillus niger
# Conditions: substrate 0.04 mM Suc-LLVY-MCA, KPB pH 6.7, 37° C.; 10 μl inhibitor stock (10 mM AEBSF, ZnSO4, EDTA; leupeptin 4.5 mg/10 ml and pepstatin A 3 mg/10 ml in DMSO diluted 10 times)
# Procedure: as §1
# 4-(2-aminoethyl)-benzenesulfonyl fluoride (AEBSF), leupeptin, pepstatin A, ZnSO4, and EDTA were purchased from Wako Chemical Co., Osaka. The inhibitors were 4.5 mg/10 ml leupeptin in DMSO diluted 10 times by Milli Q water, 3 mg/10 ml pepstatin A in DMSO diluted 10 times by Milli-Q water, 10 mM AEBSF, 10 mM ZnSO4, and 10 mM EDTA. The substrate was 0.04 mM Suc-LLVY-MCA. Enzyme solution contains 5 μl of pooled 19 kDa protease fraction, 10 μl of inhibitors, 25 μl of 400 mM KPB, pH 6.7, and 35 μl of Milli-Q water. The substrate solution and the enzyme solutions were preincubated separately at 37° C. for 5 min. The activities were measured as described above.
row,Molecule,residual activity (%)
1,"NCCc1ccc(S(=O)(=O)F)cc1 [AEBSF, 4-(2-aminoethyl)-benzenesulfonyl fluoride]",100
2,O=C(O)CN(CCN(CC(=O)O)CC(=O)O)CC(=O)O [EDTA],101
3,"CC(=O)N[C@@H](CC(C)C)C(=O)N[C@@H](CC(C)C)C(=O)N[C@H](C=O)CCCNC(=N)N [Leupeptin, leupeptin]",89
4,"CC(C)CC(=O)N[C@H](C(=O)N[C@H](C(=O)N[C@@H](CC(C)C)[C@@H](O)CC(=O)N[C@@H](C)C(=O)N[C@@H](CC(C)C)[C@@H](O)CC(=O)O)C(C)C)C(C)C [Pepstatin, pepstatin A] (Isovaleryl-VV[Sta]A[Sta]-OH)",91
5,O=S(=O)([O-])[O-].[Zn+2] [ZnSO4],99

# System: not listed separately
# Assay: pH profile of the 19 kDa protease
# Assay type: biochemical, Aspergillus niger
# Conditions: phosphate buffer pH 6, 7, 8 and diethanolamine buffer pH 8, 9, 10; 0.04 mM Suc-LLVY-MCA
# Procedure: as §1
# Phosphate buffer pH6, 7, 8, and Diethanolamine buffer pH 8, 9, 10 were used. The substrate solution was 0.04 mM Suc-LLVY-MCA. The enzyme solution contains 5 μl of 19 kDa protease, 25 μl of buffer, 5 μl of 2 M NaCl and 40 μl of Milli Q water. Assay was performed as described before. The 19 kDa protease is an alkaline protease with the pH optimum 8-9.
row,Molecule,pH optimum
1,B1,8-9
